What was measured:
calcium channel (α1H) = target: T1, calcium channel (α1H) (Homo sapiens, UniProt O95180); assay: Inhibition of calcium channel (α1H) expressed in Xenopus oocytes (first-step screen); assay type: cell-based; conditions: read-out: % Inhibition in oocyte (100 μM)
T1 construct: expressed in transfected cells; host or cells: Xenopus oocytes
Experimental: (§1) In order to evaluate the pharmaceutical effects induced by the compounds of the present invention, the inhibitory effects were examined according to the following procedure. As the first step, those that show more than 50% of inhibition to the calcium channel (α1H) expressed in Xenopus oocytes were screened. For the second step, α1G Ca^2+ channel activities expressed in HEK 293 cells were measured to determine the effective inhibition concentration IC50.

α1G T-type Ca^2+ channel = target: T2, α1G T-type Ca^2+ channel (Homo sapiens, UniProt O43497); assay: T-type Ca2+ channel blocking activity in HEK293 cells, whole-cell patch clamp; assay type: cell-based; conditions: HEK293 cells expressing α1G; for inhibition at 10 µM: 10 μM (0.1% DMSO), peak current; for IC50: whole-cell patch clamp, -100 mV to -30 mV
T2 construct: expressed in transfected cells; host or cells: HEK293 cells, G-418 selected
Experimental: as §1
Measurement of T-type Ca^2+ Channel Blocking Activity of HEK293 Cells by Using Electrophysiological Method
The culture medium was prepared by adding 10% fetal bovine serum (FBS) and 1% penicillin/streptomycin (v/v) to Dulbecco's modified Eagle's medium (DMEM). The cells were cultured in an incubator having a wet condition of 95% air/5% CO2 at 37° C. The medium was replaced every 3 to 4 days and the cells were sub-cultured every week such that only the cells that expressed α1G T-type Ca^2+ channels could be grown using G-418 (0.5 mg/ml) solution. The cells that were used to measure T-type Ca^2+ channel activity were incubated on a cover slip coated by poly-L-lysine (0.5 mg/ml) every time they were sub-cultured and then recorded after 2 to 3 days. T-type Ca^2+ channel currents at the single-cell level were determined by the electrophysiological whole-cells patch clamp technique using EPC-9 amplifier (HEKA, German). Extracellular solution of NaCl 140 mM, CaCl2 2 mM, HEPES 10 mM (pH 7.4), and intracellular solution of KCl 130 mM, HEPES 10 mM, EGTA 11 mM, MgATP 5 mM (pH 7.4) were used for T-type Ca^2+ channel blocking activity. As the low voltage-activated T-type Ca^2+ channel activity protocol, a fine glass electrode of 3-4 MΩ resistance containing the above-prepared intracellular solution was inserted into a single cell to become the whole-cell recording mode, followed by fixing the potential of the cell membrane at −100 mV and measuring the inward current of the T-type Ca^2+ channel activity when […] at −30 mV (50 ms duration) every 15 seconds. Each compound was dissolved in 100% dimethylsulfoxide (DMSO) to prepare 10 mM stock solution, and then the effect of T-type Ca^2+ channel current at 1,000 fold diluted concentration of 10 μM (including 0.1% DMSO) was initially measured before IC50 values were determined by testing the effects at the concentration range for the IC50 measurement (in general, 0.1-100 μM). Specifically, cells were treated with each compound along with the extracellular solution until T-type Ca^2+ channel currents were stabilized under whole-cell voltage-clamp conditions and the inhibition level of the peak current due to the compound was calculated and expressed in percentage.

T1 sequence (O95180 whole entry): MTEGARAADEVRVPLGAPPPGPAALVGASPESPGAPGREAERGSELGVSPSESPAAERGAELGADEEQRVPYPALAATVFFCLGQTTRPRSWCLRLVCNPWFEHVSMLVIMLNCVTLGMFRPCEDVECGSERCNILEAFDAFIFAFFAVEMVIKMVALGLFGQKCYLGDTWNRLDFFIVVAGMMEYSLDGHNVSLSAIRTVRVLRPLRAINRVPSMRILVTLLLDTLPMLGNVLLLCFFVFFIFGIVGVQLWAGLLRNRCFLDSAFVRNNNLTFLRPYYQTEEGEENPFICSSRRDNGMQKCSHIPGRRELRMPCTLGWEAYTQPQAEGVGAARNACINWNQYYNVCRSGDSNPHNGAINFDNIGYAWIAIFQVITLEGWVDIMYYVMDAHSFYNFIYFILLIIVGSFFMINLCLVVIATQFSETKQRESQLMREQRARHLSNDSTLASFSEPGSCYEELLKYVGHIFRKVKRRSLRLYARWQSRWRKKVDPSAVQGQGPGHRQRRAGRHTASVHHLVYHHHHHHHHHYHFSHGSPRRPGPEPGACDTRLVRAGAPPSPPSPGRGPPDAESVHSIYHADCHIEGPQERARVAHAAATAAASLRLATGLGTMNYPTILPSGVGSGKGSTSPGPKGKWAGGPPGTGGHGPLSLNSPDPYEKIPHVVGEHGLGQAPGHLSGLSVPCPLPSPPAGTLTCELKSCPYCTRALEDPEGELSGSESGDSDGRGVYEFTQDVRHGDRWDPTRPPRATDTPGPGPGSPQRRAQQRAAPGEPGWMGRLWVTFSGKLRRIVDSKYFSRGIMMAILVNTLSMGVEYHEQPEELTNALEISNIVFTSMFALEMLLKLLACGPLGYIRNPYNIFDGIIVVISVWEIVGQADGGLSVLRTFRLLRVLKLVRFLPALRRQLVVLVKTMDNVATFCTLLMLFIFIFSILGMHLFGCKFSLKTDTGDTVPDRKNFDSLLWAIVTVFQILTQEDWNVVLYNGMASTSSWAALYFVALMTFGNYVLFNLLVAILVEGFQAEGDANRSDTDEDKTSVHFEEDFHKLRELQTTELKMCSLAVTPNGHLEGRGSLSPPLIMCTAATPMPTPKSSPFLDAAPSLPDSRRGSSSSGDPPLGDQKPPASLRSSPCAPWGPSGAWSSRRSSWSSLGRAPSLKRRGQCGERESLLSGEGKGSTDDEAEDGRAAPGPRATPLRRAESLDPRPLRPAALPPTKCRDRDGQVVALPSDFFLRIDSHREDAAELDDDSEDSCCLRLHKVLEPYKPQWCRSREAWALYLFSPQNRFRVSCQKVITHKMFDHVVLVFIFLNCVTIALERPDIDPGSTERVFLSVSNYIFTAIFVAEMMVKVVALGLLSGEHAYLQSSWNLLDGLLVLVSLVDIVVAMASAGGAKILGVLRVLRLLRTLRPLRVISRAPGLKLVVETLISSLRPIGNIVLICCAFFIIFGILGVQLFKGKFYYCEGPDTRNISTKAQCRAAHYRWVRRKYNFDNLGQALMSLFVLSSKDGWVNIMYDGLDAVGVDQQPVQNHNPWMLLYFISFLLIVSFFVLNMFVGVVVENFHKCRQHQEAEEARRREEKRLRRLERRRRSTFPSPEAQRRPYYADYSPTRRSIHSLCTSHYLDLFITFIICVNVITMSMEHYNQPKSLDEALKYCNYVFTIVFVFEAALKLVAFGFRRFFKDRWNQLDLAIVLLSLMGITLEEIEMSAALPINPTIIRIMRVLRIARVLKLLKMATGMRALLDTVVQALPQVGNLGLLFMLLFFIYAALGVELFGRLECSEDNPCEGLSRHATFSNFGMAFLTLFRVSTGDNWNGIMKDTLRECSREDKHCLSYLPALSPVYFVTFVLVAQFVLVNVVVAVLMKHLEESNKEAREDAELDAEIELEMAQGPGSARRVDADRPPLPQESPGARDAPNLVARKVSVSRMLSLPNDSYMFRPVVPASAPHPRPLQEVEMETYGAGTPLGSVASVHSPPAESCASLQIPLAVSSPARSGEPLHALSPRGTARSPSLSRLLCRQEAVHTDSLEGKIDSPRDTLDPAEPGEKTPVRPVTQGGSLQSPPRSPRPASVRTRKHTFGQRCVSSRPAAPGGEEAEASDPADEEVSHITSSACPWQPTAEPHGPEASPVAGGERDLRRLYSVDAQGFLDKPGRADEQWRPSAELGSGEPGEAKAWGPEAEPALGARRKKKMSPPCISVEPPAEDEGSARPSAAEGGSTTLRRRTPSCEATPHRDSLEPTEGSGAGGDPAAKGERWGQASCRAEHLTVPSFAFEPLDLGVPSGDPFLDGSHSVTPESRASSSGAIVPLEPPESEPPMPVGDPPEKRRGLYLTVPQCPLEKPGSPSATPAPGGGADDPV
T2 sequence (O43497 whole entry): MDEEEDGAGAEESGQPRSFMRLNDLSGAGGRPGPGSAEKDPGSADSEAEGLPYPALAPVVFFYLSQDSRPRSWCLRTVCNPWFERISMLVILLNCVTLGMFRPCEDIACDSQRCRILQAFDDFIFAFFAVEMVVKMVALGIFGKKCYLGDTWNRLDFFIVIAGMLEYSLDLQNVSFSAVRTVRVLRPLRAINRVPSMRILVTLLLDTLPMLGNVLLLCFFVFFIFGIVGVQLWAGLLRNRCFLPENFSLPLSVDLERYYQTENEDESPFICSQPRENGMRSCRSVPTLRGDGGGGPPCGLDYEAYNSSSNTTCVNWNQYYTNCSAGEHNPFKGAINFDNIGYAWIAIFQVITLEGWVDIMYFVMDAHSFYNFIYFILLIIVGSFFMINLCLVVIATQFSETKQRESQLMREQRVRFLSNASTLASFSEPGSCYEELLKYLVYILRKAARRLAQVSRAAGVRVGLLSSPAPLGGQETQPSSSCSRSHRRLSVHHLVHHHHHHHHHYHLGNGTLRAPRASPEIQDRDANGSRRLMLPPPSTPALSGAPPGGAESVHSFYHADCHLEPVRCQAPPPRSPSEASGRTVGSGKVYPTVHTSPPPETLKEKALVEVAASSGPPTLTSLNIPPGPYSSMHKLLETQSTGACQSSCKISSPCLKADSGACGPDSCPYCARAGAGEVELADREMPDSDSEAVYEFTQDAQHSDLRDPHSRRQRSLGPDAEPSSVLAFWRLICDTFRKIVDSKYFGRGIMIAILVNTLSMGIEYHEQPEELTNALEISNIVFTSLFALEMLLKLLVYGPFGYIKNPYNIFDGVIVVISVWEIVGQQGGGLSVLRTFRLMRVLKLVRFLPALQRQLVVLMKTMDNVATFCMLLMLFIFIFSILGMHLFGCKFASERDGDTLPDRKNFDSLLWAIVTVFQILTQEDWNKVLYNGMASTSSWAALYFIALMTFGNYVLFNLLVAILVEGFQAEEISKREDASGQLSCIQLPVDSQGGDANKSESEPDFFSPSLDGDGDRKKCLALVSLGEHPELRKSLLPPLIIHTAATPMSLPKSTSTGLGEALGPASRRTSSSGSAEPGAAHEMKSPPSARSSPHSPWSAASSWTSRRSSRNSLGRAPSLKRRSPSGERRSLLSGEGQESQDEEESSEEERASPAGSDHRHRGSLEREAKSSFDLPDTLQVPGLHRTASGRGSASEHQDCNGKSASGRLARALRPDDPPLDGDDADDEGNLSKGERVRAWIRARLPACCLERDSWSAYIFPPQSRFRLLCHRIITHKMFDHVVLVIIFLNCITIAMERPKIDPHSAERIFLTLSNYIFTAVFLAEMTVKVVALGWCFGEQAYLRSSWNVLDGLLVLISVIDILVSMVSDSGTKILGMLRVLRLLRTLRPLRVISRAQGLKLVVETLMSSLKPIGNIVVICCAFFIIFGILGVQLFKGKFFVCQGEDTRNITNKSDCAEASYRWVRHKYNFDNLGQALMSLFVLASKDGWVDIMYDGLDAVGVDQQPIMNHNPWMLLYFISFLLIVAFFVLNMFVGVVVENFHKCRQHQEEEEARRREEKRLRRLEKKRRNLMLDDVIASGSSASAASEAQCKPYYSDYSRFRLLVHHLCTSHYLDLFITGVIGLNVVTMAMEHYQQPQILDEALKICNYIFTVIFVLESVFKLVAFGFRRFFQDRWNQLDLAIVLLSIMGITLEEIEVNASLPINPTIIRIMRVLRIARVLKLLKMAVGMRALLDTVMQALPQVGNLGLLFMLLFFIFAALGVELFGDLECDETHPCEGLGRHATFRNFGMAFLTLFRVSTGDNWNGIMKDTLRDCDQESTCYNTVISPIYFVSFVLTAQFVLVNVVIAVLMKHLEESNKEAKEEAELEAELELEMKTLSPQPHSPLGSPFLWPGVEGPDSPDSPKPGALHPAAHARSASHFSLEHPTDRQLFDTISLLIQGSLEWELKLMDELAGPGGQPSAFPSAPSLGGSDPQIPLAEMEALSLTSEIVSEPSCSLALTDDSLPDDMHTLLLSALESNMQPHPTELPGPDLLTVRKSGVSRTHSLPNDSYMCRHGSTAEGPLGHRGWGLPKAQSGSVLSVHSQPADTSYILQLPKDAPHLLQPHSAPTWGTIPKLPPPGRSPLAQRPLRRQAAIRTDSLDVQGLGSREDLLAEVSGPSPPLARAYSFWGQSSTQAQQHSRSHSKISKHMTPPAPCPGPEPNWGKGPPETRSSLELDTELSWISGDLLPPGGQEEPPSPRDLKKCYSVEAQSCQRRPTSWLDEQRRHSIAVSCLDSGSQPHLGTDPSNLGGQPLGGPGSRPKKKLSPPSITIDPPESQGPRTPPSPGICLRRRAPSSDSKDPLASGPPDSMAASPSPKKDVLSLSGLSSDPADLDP

With `CCCc1cc(CNCCN2CCN(c3ccccc3F)CC2)nn1-c1ccccc1` [compound 63, 3-{2-[4-(2-fluorophenyl)piperazin-1-yl]ethyl}aminomethyl-1-phenyl-5-propylpyrazole] the inhibition at 100 µM (calcium channel (α1H)) was 54.9%, the inhibition at 10 µM (α1G T-type Ca^2+ channel) was 93.8 ± 1.4% and the IC50 (α1G T-type Ca^2+ channel) was 660 ± 40 nM.

Molecule `CC(C)Cc1cc(CNCCN2CCN(c3ccc([N+](=O)[O-])cc3)CC2)nn1C(C)(C)C` [compound 52, 1-t-butyl-5-iso-butyl-3-{2-[4-(4-nitrophenyl)piperazin-1-yl]ethyl}aminomethylpyrazole] has an inhibition at 100 µM (calcium channel (α1H)) of 56.4% and an IC50 (α1G T-type Ca^2+ channel) of 1770 ± 200 nM.

For `CCCc1cc(CNCCN2CCN(c3cccc(C)c3C)CC2)nn1C(C)(C)C` [compound 15, 1-t-butyl-3-{2-[4-(2,3-dimethylphenyl)piperazin-1-yl]ethyl}aminomethyl-5-propylpyrazole], the inhibition at 100 µM (calcium channel (α1H)) was 27.5%, the inhibition at 10 µM (α1G T-type Ca^2+ channel) was 79.4 ± 1.6% and the IC50 (α1G T-type Ca^2+ channel) was 1430 ± 150 nM.

`CCCc1cc(CNCCN2CCN(c3cccc(C)c3C)CC2)nn1-c1ccccc1` [compound 16, 3-{2-[4-(2,3-dimethylphenyl)piperazin-1-yl]ethyl}aminomethyl-1-phenyl-5-propylpyrazole] showed an inhibition at 100 µM (calcium channel (α1H)) of 74.6%, an inhibition at 10 µM (α1G T-type Ca^2+ channel) of 95.9 ± 0.7% and an IC50 (α1G T-type Ca^2+ channel) of 580 ± 50 nM.

`CCCc1cc(CNCCN2CCN(C(c3ccccc3)c3ccccc3)CC2)nn1C(C)(C)C` [compound 82, 1-t-butyl-3-{2-[4-(4-diphenylmethyl)piperazin-1-yl]ethyl}aminomethyl-5-propyl pyrazole] gave an inhibition at 100 µM (calcium channel (α1H)) of 24.8%, an inhibition at 10 µM (α1G T-type Ca^2+ channel) of 60.5 ± 0.6% and an IC50 (α1G T-type Ca^2+ channel) of 4420 ± 890 nM.

With `Cc1cccc(N2CCN(CCNCc3cc(CC(C)C)n(-c4ccccc4)n3)CC2)c1C` [compound 18, 5-iso-butyl-3-{2-[4-(2,3-dimethylphenyl)piperazin-1-yl]ethyl}aminomethyl-1-phenylpyrazole] the inhibition at 100 µM (calcium channel (α1H)) was 92%, the inhibition at 10 µM (α1G T-type Ca^2+ channel) was 92.7 ± 5.7% and the IC50 (α1G T-type Ca^2+ channel) was 1020 ± 100 nM.

`CCCc1cc(CNCCN2CCN(c3ccccc3)CC2)nn1-c1ccccc1` [compound 4, 5-propyl-1-phenyl-3-[2-(4-phenylpiperazin-1-yl)ethyl]aminomethylpyrazole] was tested, and the inhibition at 100 µM (calcium channel (α1H)) was 80.1%, the inhibition at 10 µM (α1G T-type Ca^2+ channel) was 94.5 ± 2.8% and the IC50 (α1G T-type Ca^2+ channel) was 300 ± 30 nM.

With `Cc1cc(CNCCN2CCN(C(c3ccccc3)c3ccc(Cl)cc3)CC2)nn1-c1ccccc1` (stereo not shown) [compound 92, 3-{2-[4-(4-chlorobenzhydryl)piperazin-1-yl]ethyl}aminomethyl-5-methyl-1-phenylpyrazole] the inhibition at 100 µM (calcium channel (α1H)) was 34.5%, the inhibition at 10 µM (α1G T-type Ca^2+ channel) was 79.2 ± 3.3% and the IC50 (α1G T-type Ca^2+ channel) was 330 ± 660 nM.

`COc1ccc(N2CCN(CCNCc3cc(CC(C)C)n(-c4ccccc4)n3)CC2)cc1` [compound 42, 5-iso-butyl-3-{2-[4-(4-methoxyphenyl)piperazin-1-yl]ethyl}aminomethyl-1-phenyl pyrazole] showed an inhibition at 100 µM (calcium channel (α1H)) of 73.3%, an inhibition at 10 µM (α1G T-type Ca^2+ channel) of 95.6 ± 1.8% and an IC50 (α1G T-type Ca^2+ channel) of 1040 ± 150 nM.

`CCCc1cc(CNCCN2CCN(c3ccc([N+](=O)[O-])cc3)CC2)nn1-c1ccccc1` [compound 51, 3-{2-[4-(4-nitrophenyl)piperazin-1-yl]ethyl}aminomethyl-1-phenyl-5-propylpyrazole] showed an inhibition at 100 µM (calcium channel (α1H)) of 51.3%, an inhibition at 10 µM (α1G T-type Ca^2+ channel) of 95.3 ± 1.4% and an IC50 (α1G T-type Ca^2+ channel) of 660 ± 70 nM.

In the case of `CCCc1cc(CNCCN2CCN(C(c3ccccc3)c3ccccc3)CC2)nn1-c1ccccc1` [compound 83, 3-{2-[4-(4-diphenylmethyl)piperazin-1-yl]ethyl}aminomethyl-1-phenyl-5-propylpyrazole], the inhibition at 100 µM (calcium channel (α1H)) is reported as 97.8%, the inhibition at 10 µM (α1G T-type Ca^2+ channel) is reported as 92.4 ± 1.8% and the IC50 (α1G T-type Ca^2+ channel) is reported as 300 ± 40 nM.

`CCCc1cc(CNCCN2CCN(c3ccc(OC)cc3)CC2)nn1-c1ccccc1` [compound 39, 3-{2-[4-(4-methoxyphenyl)piperazin-1-yl]ethyl}aminomethyl-5-propyl-1-phenylpyrazole] was tested, and the inhibition at 100 µM (calcium channel (α1H)) was 67.8%, the inhibition at 10 µM (α1G T-type Ca^2+ channel) was 91.6 ± 0.5% and the IC50 (α1G T-type Ca^2+ channel) was 900 ± 70 nM.

`CC(C)Cc1cc(CNCCN2CCN(C(c3ccccc3)c3ccccc3)CC2)nn1C(C)(C)C` [compound 84, 1-t-butyl-5-iso-butyl-3-{2-[4-(4-diphenylmethyl)piperazin-1-yl]ethyl}aminomethylpyrazole] gave an inhibition at 100 µM (calcium channel (α1H)) of 40.4%, an inhibition at 10 µM (α1G T-type Ca^2+ channel) of 89.9 ± 0.3% and an IC50 (α1G T-type Ca^2+ channel) of 2190 ± 30 nM.

Molecule `Cc1cc(CNCCN2CCN(C(c3ccccc3)c3ccccc3)CC2)nn1-c1ccccc1` [compound 81, 3-{2-[4-(4-diphenylmethyl)piperazin-1-yl]ethyl}aminomethyl-5-methyl-1-phenylpyrazole] has an inhibition at 100 µM (calcium channel (α1H)) of 95.4%, an inhibition at 10 µM (α1G T-type Ca^2+ channel) of 97.4 ± 1.3% and an IC50 (α1G T-type Ca^2+ channel) of 570 ± 60 nM.

With `CC(C)Cc1cc(CNCCN2CCN(c3ccccc3)CC2)nn1-c1ccccc1` [compound 7, 5-iso-butyl-1-phenyl-3-[2-(4-phenylpiperazin-1-yl)ethyl]aminomethylpyrazole] the inhibition at 100 µM (calcium channel (α1H)) was 77.1%, the inhibition at 10 µM (α1G T-type Ca^2+ channel) was 87.9 ± 2.7% and the IC50 (α1G T-type Ca^2+ channel) was 820 ± 40 nM.

`COc1ccc(N2CCN(CCNCc3cc(C)n(-c4ccccc4)n3)CC2)cc1` [compound 37, 3-{2-[4-(4-methoxyphenyl)piperazin-1-yl]ethyl}aminomethyl-5-methyl-1-phenylpyrazole] showed an inhibition at 10 µM (α1G T-type Ca^2+ channel) of 53 ± 1.6% and an IC50 (α1G T-type Ca^2+ channel) of 9410 ± 550 nM.

Molecule `CC(C)Cc1cc(CNCCN2CCN(c3ccc([N+](=O)[O-])cc3)CC2)nn1-c1ccccc1` [compound 53, 5-iso-butyl-3-{2-[4-(4-nitrophenyl)piperazin-1-yl]ethyl}aminomethyl-1-phenylpyrazole] has an inhibition at 100 µM (calcium channel (α1H)) of 74.4%, an inhibition at 10 µM (α1G T-type Ca^2+ channel) of 94.8 ± 1.3% and an IC50 (α1G T-type Ca^2+ channel) of 1060 ± 20 nM.

With `CCCc1cc(CNCCN2CCN(C(c3ccccc3)c3ccc(Cl)cc3)CC2)nn1-c1ccccc1` (stereo not shown) [compound 94, 3-{2-[4-(4-chlorobenzhydryl)piperazin-1-yl]ethyl}aminomethyl-1-phenyl-5-propylpyrazole] the inhibition at 100 µM (calcium channel (α1H)) was 92.9%, the inhibition at 10 µM (α1G T-type Ca^2+ channel) was 100% and the IC50 (α1G T-type Ca^2+ channel) was 650 ± 30 nM.

`CCCc1cc(CNCCN2CCN(c3cccc(Cl)c3)CC2)nn1-c1ccccc1` [compound 76, 3-{2-[4-(3-chlorophenyl)piperazin-1-yl]ethyl}aminomethyl-1-phenyl-5-propylpyrazole] was tested, and the inhibition at 100 µM (calcium channel (α1H)) was 44.7%, the inhibition at 10 µM (α1G T-type Ca^2+ channel) was 75.8 ± 1% and the IC50 (α1G T-type Ca^2+ channel) was 900 ± 90 nM.

Reference: patent publication US7544686B2, “Piperazinylalkylpyrazole derivatives useful as selective T-type calcium channel blockers and preparation method thereof” (Korea Institute of Science and Technology, priority 2005, dated 2009)
